Experimental data from paper PMC3961306, “Comparison of the Cancer Gene Targeting and Biochemical Selectivities of All Targeted Kinase Inhibitors Approved for Clinical Use” (PLoS ONE, 2014).

Assays:
Assay in all cases: Kinase profiling in a biochemical assay panel (mobility shift assays and ELISA), %-inhibition at 1 μM; selectivity entropy
[1] = target: T1, panel of more than 300 wild-type and mutant kinases (313 kinase panel) (Homo sapiens, UniProt O15530); settings: kinase PDK1; 1 μM
T1 sequence (O15530 1-556): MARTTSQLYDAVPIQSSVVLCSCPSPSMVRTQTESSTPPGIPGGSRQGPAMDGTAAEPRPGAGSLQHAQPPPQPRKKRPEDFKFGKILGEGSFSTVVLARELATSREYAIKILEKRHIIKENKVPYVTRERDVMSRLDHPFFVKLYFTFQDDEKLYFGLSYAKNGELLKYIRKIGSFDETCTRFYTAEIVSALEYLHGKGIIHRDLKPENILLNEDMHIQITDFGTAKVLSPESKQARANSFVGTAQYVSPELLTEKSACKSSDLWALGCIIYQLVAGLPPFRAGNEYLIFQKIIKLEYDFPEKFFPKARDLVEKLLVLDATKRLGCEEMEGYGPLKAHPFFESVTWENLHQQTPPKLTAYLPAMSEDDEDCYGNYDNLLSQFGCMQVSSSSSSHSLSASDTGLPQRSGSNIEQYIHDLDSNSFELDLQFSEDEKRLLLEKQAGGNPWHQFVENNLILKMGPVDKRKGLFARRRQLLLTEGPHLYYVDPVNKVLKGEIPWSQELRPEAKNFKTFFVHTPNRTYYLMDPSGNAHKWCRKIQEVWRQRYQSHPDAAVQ

[2] = target: T2, panel of more than 300 wild-type and mutant kinases (313 kinase panel) (Homo sapiens, UniProt Q9NRA0); settings: kinase SPHK2; 1 μM
T2 sequence (Q9NRA0 1-654): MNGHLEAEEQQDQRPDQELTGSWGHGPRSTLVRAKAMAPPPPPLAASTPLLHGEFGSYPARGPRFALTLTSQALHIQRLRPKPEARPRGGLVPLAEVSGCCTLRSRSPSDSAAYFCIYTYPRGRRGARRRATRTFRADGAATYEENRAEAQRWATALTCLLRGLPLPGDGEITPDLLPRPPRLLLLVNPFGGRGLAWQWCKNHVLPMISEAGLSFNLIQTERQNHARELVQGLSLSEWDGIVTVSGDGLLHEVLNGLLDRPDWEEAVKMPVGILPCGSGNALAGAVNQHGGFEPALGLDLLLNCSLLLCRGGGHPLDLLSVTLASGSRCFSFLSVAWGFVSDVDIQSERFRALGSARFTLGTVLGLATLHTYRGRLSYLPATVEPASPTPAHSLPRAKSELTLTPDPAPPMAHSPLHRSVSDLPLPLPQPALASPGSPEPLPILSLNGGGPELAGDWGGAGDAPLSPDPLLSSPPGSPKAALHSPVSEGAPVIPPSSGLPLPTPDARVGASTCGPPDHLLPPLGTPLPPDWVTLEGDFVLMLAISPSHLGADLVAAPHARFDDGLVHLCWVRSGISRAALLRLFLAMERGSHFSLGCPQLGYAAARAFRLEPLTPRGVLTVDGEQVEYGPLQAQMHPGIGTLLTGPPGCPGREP

[3] = target: panel of more than 300 wild-type and mutant kinases (313 kinase panel) (Homo sapiens, UniProt P07948); settings: kinase LYNa; compound at 1 μM
[4] = target: panel of more than 300 wild-type and mutant kinases (313 kinase panel) (Homo sapiens, UniProt P68400); settings: kinase CK2α1/β; 1 μM compound
[5] = target: panel of more than 300 wild-type and mutant kinases (313 kinase panel) (Homo sapiens, UniProt P16234)
[6] = target: panel of more than 300 wild-type and mutant kinases (313 kinase panel) (Homo sapiens, UniProt Q9P286); settings: kinase PAK5; 1 μM
[7] = target: T3, panel of more than 300 wild-type and mutant kinases (313 kinase panel) (Homo sapiens, UniProt O00418); settings: kinase EEF2K; compound at 1 μM
T3 sequence (O00418 1-725): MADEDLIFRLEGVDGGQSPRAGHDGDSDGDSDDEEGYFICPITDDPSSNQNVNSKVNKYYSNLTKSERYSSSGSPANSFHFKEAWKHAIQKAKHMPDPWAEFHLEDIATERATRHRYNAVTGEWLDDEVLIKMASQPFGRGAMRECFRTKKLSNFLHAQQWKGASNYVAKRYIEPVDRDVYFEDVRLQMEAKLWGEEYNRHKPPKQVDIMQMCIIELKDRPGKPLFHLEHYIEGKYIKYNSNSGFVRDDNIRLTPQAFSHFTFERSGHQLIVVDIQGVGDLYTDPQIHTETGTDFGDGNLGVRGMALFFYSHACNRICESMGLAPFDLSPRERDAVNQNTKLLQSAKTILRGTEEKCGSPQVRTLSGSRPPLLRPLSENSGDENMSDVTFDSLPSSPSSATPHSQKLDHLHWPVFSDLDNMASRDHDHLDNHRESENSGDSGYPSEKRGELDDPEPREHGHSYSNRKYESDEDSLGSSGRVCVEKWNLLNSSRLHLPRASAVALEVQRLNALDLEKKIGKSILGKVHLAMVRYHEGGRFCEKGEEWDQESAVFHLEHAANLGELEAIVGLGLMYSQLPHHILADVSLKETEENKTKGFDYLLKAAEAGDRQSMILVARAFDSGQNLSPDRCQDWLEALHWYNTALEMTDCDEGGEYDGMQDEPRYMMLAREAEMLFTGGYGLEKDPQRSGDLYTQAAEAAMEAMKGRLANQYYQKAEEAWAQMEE

Sequence of panel of more than 300 wild-type and mutant kinases (313 kinase panel) (Homo sapiens, UniProt Q9P286) (Q9P286 whole entry, change not shown): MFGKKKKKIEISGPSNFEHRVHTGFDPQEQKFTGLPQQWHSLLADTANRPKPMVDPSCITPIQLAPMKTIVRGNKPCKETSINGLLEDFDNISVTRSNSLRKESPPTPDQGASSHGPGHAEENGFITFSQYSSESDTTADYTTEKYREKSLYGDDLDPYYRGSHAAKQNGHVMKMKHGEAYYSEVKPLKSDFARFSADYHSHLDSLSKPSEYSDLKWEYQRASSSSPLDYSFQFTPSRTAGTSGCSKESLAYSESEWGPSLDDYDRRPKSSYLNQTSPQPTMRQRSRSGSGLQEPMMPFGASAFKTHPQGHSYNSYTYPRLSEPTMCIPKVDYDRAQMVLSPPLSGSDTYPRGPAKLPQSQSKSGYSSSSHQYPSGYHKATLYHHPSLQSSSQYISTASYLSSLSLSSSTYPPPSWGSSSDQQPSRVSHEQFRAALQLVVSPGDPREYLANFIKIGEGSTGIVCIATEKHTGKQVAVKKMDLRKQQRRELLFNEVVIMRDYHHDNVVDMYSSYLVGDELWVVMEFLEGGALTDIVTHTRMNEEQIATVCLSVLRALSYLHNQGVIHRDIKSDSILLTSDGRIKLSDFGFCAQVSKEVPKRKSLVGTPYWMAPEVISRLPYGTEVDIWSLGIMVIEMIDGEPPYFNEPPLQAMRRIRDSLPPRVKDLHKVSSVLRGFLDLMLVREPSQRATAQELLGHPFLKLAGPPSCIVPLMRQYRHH
Sequence of panel of more than 300 wild-type and mutant kinases (313 kinase panel) (Homo sapiens, UniProt P16234) (P16234 24-1089, change not shown): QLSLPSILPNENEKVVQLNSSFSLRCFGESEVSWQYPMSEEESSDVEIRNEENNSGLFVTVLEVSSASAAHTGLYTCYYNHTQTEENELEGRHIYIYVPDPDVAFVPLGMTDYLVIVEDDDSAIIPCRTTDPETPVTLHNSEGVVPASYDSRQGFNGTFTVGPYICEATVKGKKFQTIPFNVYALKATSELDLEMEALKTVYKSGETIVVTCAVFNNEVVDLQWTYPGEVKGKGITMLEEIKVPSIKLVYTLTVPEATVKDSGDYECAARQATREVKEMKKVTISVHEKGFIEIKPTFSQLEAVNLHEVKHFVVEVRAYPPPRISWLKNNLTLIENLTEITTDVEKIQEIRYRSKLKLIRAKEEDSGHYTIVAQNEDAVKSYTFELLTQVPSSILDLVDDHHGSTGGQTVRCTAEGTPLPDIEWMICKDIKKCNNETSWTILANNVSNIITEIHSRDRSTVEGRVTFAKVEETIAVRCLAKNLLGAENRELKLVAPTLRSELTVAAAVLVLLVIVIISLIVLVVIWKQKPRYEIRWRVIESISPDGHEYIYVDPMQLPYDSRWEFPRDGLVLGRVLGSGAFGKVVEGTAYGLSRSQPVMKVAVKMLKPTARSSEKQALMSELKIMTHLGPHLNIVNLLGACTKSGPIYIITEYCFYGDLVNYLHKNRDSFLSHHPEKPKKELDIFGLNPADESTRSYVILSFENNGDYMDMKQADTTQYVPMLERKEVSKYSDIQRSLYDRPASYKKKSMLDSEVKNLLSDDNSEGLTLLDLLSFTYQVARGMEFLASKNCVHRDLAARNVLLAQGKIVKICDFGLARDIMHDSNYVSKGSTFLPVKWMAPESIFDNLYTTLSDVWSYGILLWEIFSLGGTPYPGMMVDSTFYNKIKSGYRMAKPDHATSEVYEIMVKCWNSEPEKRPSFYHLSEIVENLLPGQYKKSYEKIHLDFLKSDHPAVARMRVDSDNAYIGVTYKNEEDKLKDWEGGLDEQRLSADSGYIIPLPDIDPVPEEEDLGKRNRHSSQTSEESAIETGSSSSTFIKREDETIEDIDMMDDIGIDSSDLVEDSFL

Cc1cn(-c2cc(NC(=O)c3ccc(C)c(Nc4nccc(-c5cccnc5)n4)c3)cc(C(F)(F)F)c2)cn1 [nilotinib]
%-inhibition of PDK1 [1]: -4.33%
%-inhibition of SPHK2 [2]: 6%
%-inhibition of LYNa [3]: 85%
%-inhibition, CK2α1/β [4]: 3.23%
%-inhibition of PDGFRα ([5]; 1 µM): 103%
%-inhibition of PAK5 [6]: 3.39%
%-inhibition of EEF2K [7]: 6.34%

COc1cc2nccc(Oc3ccc(NC(=O)C4(C(=O)Nc5ccc(F)cc5)CC4)cc3)c2cc1OC [cabozantinib]
%-inhibition of PDK1 [1]: -7%
%-inhibition of SPHK2 [2]: 2%
%-inhibition of LYNa [3]: 100%
%-inhibition, CK2α1/β [4]: -2.76%
%-inhibition of PDGFRα ([5]; kinase PDGFRα, 1 μM): 100%
%-inhibition of PAK5 [6]: -2.51%
%-inhibition of EEF2K [7]: -4.74%
